From patent US9751869B2, “LXR modulators” (BRISTOL-MYERS SQUIBB COMPANY, priority 2013, dated 2017)

Target: T1, LXRβ (Homo sapiens, UniProt P55055)
T1 construct: Co-transfection expression plasmids, comprising full-length LXRα (pCMX-h LXRα or LXRβ (pCMX-hLXRβ)); expressed in transfected cells; host or cells: CV-1 African green monkey kidney cells, transient transfection with pCMX-hLXRβ
T1 sequence (P55055 1-460): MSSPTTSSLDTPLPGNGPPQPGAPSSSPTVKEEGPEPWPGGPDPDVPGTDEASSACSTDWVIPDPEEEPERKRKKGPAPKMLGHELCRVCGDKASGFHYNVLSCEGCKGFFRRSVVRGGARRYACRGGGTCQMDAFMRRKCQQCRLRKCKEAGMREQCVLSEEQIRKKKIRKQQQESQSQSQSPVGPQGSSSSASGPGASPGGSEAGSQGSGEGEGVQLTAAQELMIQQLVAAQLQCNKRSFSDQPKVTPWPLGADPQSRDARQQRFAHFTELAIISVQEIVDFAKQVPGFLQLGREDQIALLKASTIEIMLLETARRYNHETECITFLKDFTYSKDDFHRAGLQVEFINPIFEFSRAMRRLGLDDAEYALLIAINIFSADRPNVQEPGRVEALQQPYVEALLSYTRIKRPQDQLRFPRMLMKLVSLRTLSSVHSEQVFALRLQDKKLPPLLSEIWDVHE
T1 sequence (P19793 1-462 partner): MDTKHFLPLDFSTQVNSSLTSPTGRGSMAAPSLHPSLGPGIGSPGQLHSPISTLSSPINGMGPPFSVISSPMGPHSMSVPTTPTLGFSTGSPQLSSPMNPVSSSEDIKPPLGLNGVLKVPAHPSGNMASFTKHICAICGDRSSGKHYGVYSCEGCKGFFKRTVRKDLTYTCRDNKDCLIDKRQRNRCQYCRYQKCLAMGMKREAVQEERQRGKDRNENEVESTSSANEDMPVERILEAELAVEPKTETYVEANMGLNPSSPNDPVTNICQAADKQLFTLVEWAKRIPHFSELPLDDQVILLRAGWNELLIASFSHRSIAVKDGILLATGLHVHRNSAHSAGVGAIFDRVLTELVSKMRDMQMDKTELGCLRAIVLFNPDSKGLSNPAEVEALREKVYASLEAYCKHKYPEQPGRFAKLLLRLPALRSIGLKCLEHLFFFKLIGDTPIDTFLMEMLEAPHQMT
Assay: LXR/LXRE co-transfection assay (luciferase reporter) in CV-1 cells, LXRβ
Type: cell-based
Conditions: for EC50: CV-1 cells transfected with pCMX-hLXRβ and LXREx1-Tk-Luciferase, 20 hours incubation, read-out: LXRbeta agonism EC50; for Emax: CV-1 cells, relative to maximum response of high control N-(3-((4-fluorophenyl)-(naphthalene-2-sulfonyl)amino)propyl)-2,2-dimethylpropionamide, read-out: LXRbeta % EFFICACY
How it was run: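 CV-1 cells transiently co-transfected with full-length human LXRβ, LXRE-Tk-luciferase reporter and β-galactosidase control, then exposed to compound (≤0.5% DMSO) for 20 h at 37 °C before luminescence read. EC50 from 10-point, half-log dose curves; efficacy relative to the sulfonamide high control, means of 2–3 experiments.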

Row | EC50 | Emax | Compound
1 | 728 nM | 74% | Cc1nc(-c2cc(-c3cccc(C4(C(N)=O)CC4)c3)ccc2-n2nc(C(F)(F)F)cc2Cl)c(-c2ccc(OC(F)(F)F)cc2)o1 [Example 418, 1-(4′-(5-chloro-3-(trifluoromethyl)-1H-pyrazol-1-yl)-3′-(2-methyl-5-(4-(trifluoromethoxy)phenyl)oxazol-4-yl)-[1,1′-biphenyl]-3-yl) cyclopropanecarboxamide]
2 | 4 nM | 71% | Cc1nc(-c2ccc3c(c2)OC(F)(F)O3)c(-c2cc(-c3cccc(S(C)(=O)=O)c3)ccc2-n2cc(Cl)c(C(F)(F)F)n2)o1 [Example 419, 5-(4-(4-chloro-3-(trifluoromethyl)-1H-pyrazol-1-yl)-3′-(methylsulfonyl)-[1,1′-biphenyl]-3-yl)-4-(2,2-difluorobenzo[d][1,3]dioxol-5-yl)-2-methyloxazole]
3 | 7 nM | 74% | Cc1nc(-c2ccc3c(c2)OC(F)(F)O3)c(-c2cc(-c3cc(F)c(CO)c(S(C)(=O)=O)c3)ccc2-n2cc(Cl)c(C(F)(F)F)n2)o1 [Example 420, (4′-(4-chloro-3-(trifluoromethyl)-1H-pyrazol-1-yl)-3′-(4-(2,2-difluorobenzo[d][1,3]dioxol-5-yl)-2-methyloxazol-5-yl)-3-fluoro-5-(methylsulfonyl)-[1,1′-biphenyl]-4-yl) methanol]
4 | 21 nM | 76% | Cc1nc(-c2cc(F)c(OC(F)F)c(F)c2)c(-c2cc(-c3cccc(S(C)(=O)=O)c3)ccc2-n2cc(Cl)c(C(F)(F)F)n2)o1 [Example 421]
5 | 4 nM | 98% | Cc1nc(-c2cc(F)c(OC(F)F)c(F)c2)c(-c2cc(-c3cc(F)c(CO)c(S(C)(=O)=O)c3)ccc2-n2cc(Cl)c(C(F)(F)F)n2)o1 [Example 422, (4′-(4-chloro-3-(trifluoromethyl)-1H-pyrazol-1-yl)-3′-(4-(4-(difluoromethoxy)-3,5-difluorophenyl)-2-methyloxazol-5-yl)-3-fluoro-5-(methylsulfonyl)-[1,1′-biphenyl]-4-yl)methanol]
6 | 60 nM | 78% | Cc1nc(-c2ccc(Cl)cc2Cl)c(-c2cc(-c3cccc(S(C)(=O)=O)c3)ccc2-n2cc(Cl)c(C(F)(F)F)n2)o1 [Example 423, 5-(4-(4-chloro-3-(trifluoromethyl)-1H-pyrazol-1-yl)-3′-(methylsulfonyl)-[1,1′-biphenyl]-3-yl)-4-(2,4-dichlorophenyl)-2-methyloxazole]
7 | 13 nM | 60% | Cc1nc(-c2ccc(Cl)cc2Cl)c(-c2cc(-c3cc(F)c(CO)c(S(C)(=O)=O)c3)ccc2-n2cc(Cl)c(C(F)(F)F)n2)o1 [Example 424, (4′-(4-chloro-3-(trifluoromethyl)-1H-pyrazol-1-yl)-3′-(4-(2,4-dichlorophenyl)-2-methyloxazol-5-yl)-3-fluoro-5-(methylsulfonyl)-[1,1′-biphenyl]-4-yl)methanol]
8 | 24 nM | 99% | Cc1nc(-c2ccc(OC(F)F)nc2)c(-c2cc(-c3cccc(S(C)(=O)=O)c3)ccc2-n2cc(Cl)c(C(F)(F)F)n2)o1 [Example 425]

Continued, molecule first:

Row | Compound | EC50 | Emax
9 | Cc1nc(-c2cc(-c3cc(F)c(CO)c(S(C)(=O)=O)c3)ccc2-n2nc(C(F)(F)F)cc2Cl)c(-c2ccc(OC(F)(F)F)cc2)o1 [Example 405, (4′-(5-chloro-3-(trifluoromethyl)-1H-pyrazol-1-yl)-3-fluoro-3′-(2-methyl-5-(4-(trifluoromethoxy)phenyl)oxazol-4-yl)-5-(methylsulfonyl)biphenyl-4-yl)methanol] | 100 nM | 63%
10 | Cc1nc(-c2cc(-c3cccc(S(C)(=O)=O)c3)ccc2-n2nc(C(F)(F)F)cc2Cl)c(-c2ccc(OC(F)(F)F)cc2)o1 [Example 406, 4-(4-(5-chloro-3-(trifluoromethyl)-1H-pyrazol-1-yl)-3′-(methylsulfonyl)biphenyl-3-yl)-2-methyl-5-(4-(trifluoromethoxy)phenyl)oxazole] | 143 nM | 63%
11 | COc1ncc(-c2oc(C)nc2-c2cc(-c3cccc(S(C)(=O)=O)c3)ccc2-n2ccc(C(F)(F)F)n2)cc1F [Example 407, 5-(5-fluoro-6-methoxypyridin-3-yl)-2-methyl-4-(3′-(methylsulfonyl)-4-(3-(trifluoromethyl)-1H-pyrazol-1-yl)biphenyl-3-yl)oxazole] | 67 nM | 91%
12 | COc1ncc(-c2oc(C)nc2-c2cc(-c3cc(F)c(CO)c(S(C)(=O)=O)c3)ccc2-n2ccc(C(F)(F)F)n2)cc1F [Example 408, (3-fluoro-3′-(5-(5-fluoro-6-methoxypyridin-3-yl)-2-methyloxazol-4-yl)-5-(methylsulfonyl)-4′-(3-(trifluoromethyl)-1H-pyrazol-1-yl)biphenyl-4-yl)methanol] | 18 nM | 73%
13 | Cc1nc(-c2cc(-c3cccc(S(C)(=O)=O)c3)ccc2-n2ccc(C(F)(F)F)n2)c(-c2cc(F)c(OC(F)F)c(F)c2)o1 [Example 409, 5-(4-(difluoromethoxy)-3,5-difluorophenyl)-2-methyl-4-(3′-(methylsulfonyl)-4-(3-(trifluoromethyl)-1H-pyrazol-1-yl)biphenyl-3-yl)oxazole] | 45 nM | 69%
14 | Cc1nc(-c2cc(-c3cc(F)c(CO)c(S(C)(=O)=O)c3)ccc2-n2ccc(C(F)(F)F)n2)c(-c2cc(F)c(OC(F)F)c(F)c2)o1 [Example 410, (3′-(5-(4-(difluoromethoxy)-3,5-difluorophenyl)-2-methyloxazol-4-yl)-3-fluoro-5-(methylsulfonyl)-4′-(3-(trifluoromethyl)-1H-pyrazol-1-yl)biphenyl-4-yl)methanol] | 20 nM | 82%
15 | Cc1nc(-c2cc(-c3cc(F)c(CO)c(S(C)(=O)=O)c3)ccc2-n2nc(C(F)(F)F)cc2Cl)c(-c2ccc3c(c2)OC(F)(F)O3)o1 [Example 411, (4′-(5-chloro-3-(trifluoromethyl)-1H-pyrazol-1-yl)-3′-(5-(2,2-difluorobenzo[d][1,3]dioxol-5-yl)-2-methyloxazol-4-yl)-3-fluoro-5-(methylsulfonyl)biphenyl-4-yl)methanol] | 19 nM | 90%
16 | Cc1nc(-c2cc(-c3cccc(S(C)(=O)=O)c3)ccc2-n2nc(C(F)(F)F)cc2Cl)c(-c2ccc3c(c2)OC(F)(F)O3)o1 [Example 412, 4-(4-(5-chloro-3-(trifluoromethyl)-1H-pyrazol-1-yl)-3′-(methylsulfonyl)biphenyl-3-yl)-5-(2,2-difluorobenzo[d][1,3]dioxol-5-yl)-2-methyloxazole] | 29 nM | 93%
17 | Cc1nc(-c2cc(-c3cc(F)c(CO)c(S(C)(=O)=O)c3)ccc2-n2ccc(C(F)(F)F)n2)c(-c2ccc(OC(F)(F)F)cc2)o1 [Example 413, (3-fluoro-3′-(2-methyl-5-(4-(trifluoromethoxy)phenyl)oxazol-4-yl)-5-(methylsulfonyl)-4′-(3-(trifluoromethyl)-1H-pyrazol-1-yl)biphenyl-4-yl)methanol] | 52 nM | 73%
18 | Cc1nc(-c2cc(-c3cccc(S(C)(=O)=O)c3)ccc2-n2ccc(C(F)(F)F)n2)c(-c2ccc(OC(F)(F)F)cc2)o1 [Example 414, 2-methyl-4-(3′-(methylsulfonyl)-4-(3-(trifluoromethyl)-1H-pyrazol-1-yl)biphenyl-3-yl)-5-(4-(trifluoromethoxy)phenyl)oxazole] | 92 nM | 80%
19 | Cc1nc(-c2cc(-c3cc(F)c(CO)c(S(C)(=O)=O)c3)ccc2-n2nc(C(F)(F)F)cc2C2CC2)c(-c2ccc(OC(F)(F)F)cc2)o1 [Example 415, (4′-(5-cyclopropyl-3-(trifluoromethyl)-1H-pyrazol-1-yl)-3-fluoro-3′-(2-methyl-5-(4-(trifluoromethoxy)phenyl)oxazol-4-yl)-5-(methylsulfonyl)biphenyl-4-yl)methanol] | 458 nM | 37%
20 | Cc1nc(-c2cc(-c3cccc(S(C)(=O)=O)c3)ccc2-n2ccc(C(N)=O)n2)c(-c2ccc(OC(F)(F)F)cc2)o1 [Example 416] | 3050 nM | 27%
21 | Cc1nc(-c2cc(-c3cccc(S(C)(=O)=O)c3)ccc2-n2ccc(C(C)(C)O)n2)c(-c2ccc(OC(F)(F)F)cc2)o1 [Example 417, 2-(1-(3-(2-methyl-5-(4-(trifluoromethoxy)phenyl)oxazol-4-yl)-3′-(methylsulfonyl)-[1,1′-biphenyl]-4-yl)-1H-pyrazol-3-yl)propan-2-ol] | 1010 nM | 16%
